Source: the supplement of paper PMC10883282

Experiments:
Test in all cases: relative viability vs DMSO control (72 h) (fraction); higher = more viable cells
A204 = system: A204
Summary of the method: (§1)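 Sarcoma cell lines were seeded in 384-well plates at densities chosen for 80–90% confluence, then 24 h later given 2.5 µl of serially diluted compound drawn from source plates spanning 10 mM to 0.0002 mM. They were held 72 h at 37 °C, 5% CO2, with 0.1% DMSO vehicle and a 5 µM positive control included. Relative viability was read with ATPLite as percent growth and averaged over up to triplicate wells. Rescaling placed full at 1 and none at 0.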

G401 = system: G401
Summary of the method: as §1

HT1080 = system: HT1080
Summary of the method: as §1

KHOS-240S = system: KHOS-240S
Summary of the method: as §1

KHOS-NP = system: KHOS-NP
Summary of the method: as §1

RD-ES = system: RD-ES
Summary of the method: as §1

SK-ES-1 = system: SK-ES-1
Summary of the method: as §1

SW1353 = system: SW1353
Summary of the method: as §1

SW684 = system: SW684
Summary of the method: as §1

SW872 = system: SW872
Summary of the method: as §1

SW982 = system: SW982
Summary of the method: as §1

SYO-1 = system: SYO-1
Summary of the method: as §1

CCN(c1cc(-c2ccc(CN3CCOCC3)cc2)cc(C(=O)NCc2c(C)cc(C)[nH]c2=O)c1C)C1CCOCC1 [Tazemetostat]
Conditions | relative viability
A204, 0.00017 µM | 1.04
A204, 0.00051 µM | 1.09
A204, 0.00152 µM | 1.08
A204, 0.00457 µM | 1.07
A204, 0.01372 µM | 1.03
A204, 0.04115 µM | 1.069
A204, 0.1235 µM | 1.08
A204, 0.3704 µM | 1.08
A204, 1.111 µM | 1.08
A204, 3.333 µM | 1.09
A204, 10 µM | 1.05
G401, 0.00017 µM | 1.03
G401, 0.00051 µM | 1.01
G401, 0.00152 µM | 1
G401, 0.00457 µM | 1.049
G401, 0.01372 µM | 1.05
G401, 0.04115 µM | 1.04
G401, 0.1235 µM | 1
G401, 0.3704 µM | 0.999
G401, 1.111 µM | 1.01
G401, 3.333 µM | 1.02
G401, 10 µM | 1.01
HT1080, 0.00017 µM | 1.09
HT1080, 0.00051 µM | 1.1
HT1080, 0.00152 µM | 1.08
HT1080, 0.00457 µM | 1.09
HT1080, 0.01372 µM | 1.085
HT1080, 0.04115 µM | 1.07
HT1080, 0.1235 µM | 1.09
HT1080, 0.3704 µM | 1.1
HT1080, 1.111 µM | 1.071
HT1080, 3.333 µM | 1.08
HT1080, 10 µM | 1.01
KHOS-240S, 0.00017 µM | 1.02
KHOS-240S, 0.00051 µM | 1.031
KHOS-240S, 0.00152 µM | 1.03
KHOS-240S, 0.00457 µM | 1.03
KHOS-240S, 0.01372 µM | 1.01
KHOS-240S, 0.04115 µM | 1.03
KHOS-240S, 0.1235 µM | 1.01
KHOS-240S, 0.3704 µM | 0.9861
KHOS-240S, 1.111 µM | 0.9866
KHOS-240S, 3.333 µM | 0.975
KHOS-240S, 10 µM | 0.925
KHOS-NP, 0.00017 µM | 1.05
KHOS-NP, 0.00051 µM | 1.06
KHOS-NP, 0.00152 µM | 1.06
KHOS-NP, 0.00457 µM | 1.07
KHOS-NP, 0.01372 µM | 1.04
KHOS-NP, 0.04115 µM | 1.04
KHOS-NP, 0.1235 µM | 1.015
KHOS-NP, 0.3704 µM | 0.997
KHOS-NP, 1.111 µM | 0.98
KHOS-NP, 3.333 µM | 0.998
KHOS-NP, 10 µM | 0.934
RD-ES, 0.00017 µM | 0.984
RD-ES, 0.00051 µM | 1
RD-ES, 0.00152 µM | 0.989
RD-ES, 0.00457 µM | 0.965
RD-ES, 0.01372 µM | 0.968
RD-ES, 0.04115 µM | 1.01
RD-ES, 0.1235 µM | 0.975
RD-ES, 0.3704 µM | 0.971
RD-ES, 1.111 µM | 1
RD-ES, 3.333 µM | 0.988
RD-ES, 10 µM | 0.98
SK-ES-1, 0.00017 µM | 1.03
SK-ES-1, 0.00051 µM | 1.01
SK-ES-1, 0.00152 µM | 0.982
SK-ES-1, 0.00457 µM | 0.993
SK-ES-1, 0.01372 µM | 0.972
SK-ES-1, 0.04115 µM | 1.03
SK-ES-1, 0.1235 µM | 1.009
SK-ES-1, 0.3704 µM | 0.998
SK-ES-1, 1.111 µM | 0.991
SK-ES-1, 3.333 µM | 0.961
SK-ES-1, 10 µM | 0.995
SW684, 0.00017 µM | 1.05
SW684, 0.00051 µM | 1.092
SW684, 0.00152 µM | 1.11
SW684, 0.00457 µM | 1.1
SW684, 0.01372 µM | 1.12
SW684, 0.04115 µM | 1.12
SW684, 0.1235 µM | 1.12
SW684, 0.3704 µM | 1.11
SW684, 1.111 µM | 1.12
SW684, 3.333 µM | 1.14
SW684, 10 µM | 1.1
SW872, 0.00017 µM | 1.04
SW872, 0.00051 µM | 1.07
SW872, 0.00152 µM | 1.07
SW872, 0.00457 µM | 1.072
SW872, 0.01372 µM | 1.066
SW872, 0.04115 µM | 1.08
SW872, 0.1235 µM | 1.05
SW872, 0.3704 µM | 1.06
SW872, 1.111 µM | 1.02
SW872, 3.333 µM | 1.03
SW872, 10 µM | 1.02
SW982, 0.00017 µM | 0.968
SW982, 0.00051 µM | 0.988
SW982, 0.00152 µM | 0.977
SW982, 0.00457 µM | 0.98
SW982, 0.01372 µM | 0.973
SW982, 0.04115 µM | 1.02
SW982, 0.1235 µM | 0.985
SW982, 0.3704 µM | 0.951
SW982, 1.111 µM | 0.958
SW982, 3.333 µM | 0.926
SW982, 10 µM | 0.932
SW1353, 0.00017 µM | 1.08
SW1353, 0.00051 µM | 1.04
SW1353, 0.00152 µM | 1.065
SW1353, 0.00457 µM | 1.08
SW1353, 0.01372 µM | 1.05
SW1353, 0.04115 µM | 1.09
SW1353, 0.1235 µM | 1.05
SW1353, 0.3704 µM | 1.04
SW1353, 1.111 µM | 1.02
SW1353, 3.333 µM | 1.02
SW1353, 10 µM | 0.991
SYO-1, 0.00017 µM | 1.03
SYO-1, 0.00051 µM | 1
SYO-1, 0.00152 µM | 1.02
SYO-1, 0.00457 µM | 1
SYO-1, 0.01372 µM | 0.994
SYO-1, 0.04115 µM | 1.006
SYO-1, 0.1235 µM | 1
SYO-1, 0.3704 µM | 0.95
SYO-1, 1.111 µM | 0.953
SYO-1, 3.333 µM | 0.915
SYO-1, 10 µM | 0.873
